Data taken from patent publication US20050130134A1, “Means and methods for monitoring non-nucleoside reverse transcriptase inhibitor antiretroviral therapy and guiding therapeutic decisions in the treatment HIV-AIDS” (ViroLogic, Inc., priority 2000, published 2005).

Columns and labels:
[1] = test system: T66I integrase site-directed mutant; assay: Phenotypic susceptibility assay, integrase T66I mutated resistance test vector; format: cell-based, HIV; conditions: T66I integrase mutant, FIG. 10
Procedure: Transfections were performed using a calcium-phosphate precipitation procedure. […] Cell lysates were assayed for luciferase activity (FIG. 3). […] The drug inhibition curves are shown in (FIG. 3).
A resistance test vector containing the threonine to isoleucine mutation at position 66 of the integrase protein (T66I) was constructed and tested using the phenotypic assay described earlier.

[2] = test system: RTV-268 patient virus (RT P236L with M41L, D67N, M184V, L210W, T215Y, K219Q); assay: Phenotypic susceptibility assay, RTV-268 (patient 97-268); format: cell-based, HIV-1; conditions: RTV-268 patient virus compared to reference virus
Procedure: Resistance tests were carried out with resistance test vectors using two host cell types. Resistance test vector viral particles were produced by a first host cell (the resistance test vector host cell) that was prepared by transfecting a packaging host cell with the resistance test vector and the packaging expression vector. The resistance test vector viral particles were then used to infect a second host cell (the target host cell) in which the expression of the indicator gene is measured.
The resistance test vectors containing a functional luciferase gene cassette were constructed and host cells were transfected with the resistance test vector DNA. The resistant test vectors contained patient-derived reverse transcriptase and protease sequences that were either susceptible or resistant to the antiretroviral agents, such as nucleoside reverse transcriptase inhibitors, non-nucleoside reverse transcriptase inhibitors and protease inhibitors. The resistance test vector viral particles produced by transfecting the resistance test vector DNA into host cells, either in the presence or absence of protease inhibitors, were used to infect target host cells grown either in the absence of NRTI or NNRTI or in the presence of increasing concentrations of the drug. The amount of luciferase activity produced in infected target host cells in the presence of drug was compared to the amount of luciferase produced in infected target host cells in the absence of drug. Drug resistance was measured as the amount of drug required to inhibit by 50% the luciferase activity detected in the absence of drug (inhibitory concentration 50%, IC50). The IC50 values were determined by plotting percent drug inhibition vs. log10 drug concentration.
Host cells were seeded in 10-cm-diameter dishes and were transfected several days after plating with resistance test vector plasmid DNA and the envelope expression vector. Transfections were performed using a calcium-phosphate precipitation procedure. The cell culture media containing the DNA precipitate was replaced with fresh medium, from one to 24 hours, after transfection. Cell culture media containing resistance test vector viral particles was harvested one to four days after transfection and was passed through a […] filter before being stored at −80° C. HIV capsid protein (p24) levels in the harvested cell culture media were determined by an EIA method as described by the manufacturer (SIAC; Frederick, Md.). Before infection, target cells (293 and 293/T) were plated in cell culture media. Control infections were performed using cell culture media from mock transfections (no DNA) or transfections containing the resistance test vector plasmid DNA without the envelope expression plasmid. One to three or more days after infection the media was removed and cell lysis buffer (Promega) was added to each well. […] The inhibitory effect of the drug was determined using the following equation: % luciferase inhibition=1-(RLUluc[drug]÷RLUluc)×100 where RLUluc [drug] is the relative light unit of luciferase activity in infected cells in the presence of drug and RLUluc is the Relative Light Unit of luciferase activity in infected cells in the absence of drug. IC50 values were obtained from the sigmoidal curves that were generated from the data by plotting the percent inhibition of luciferase activity vs. the log10 drug concentration.
A resistance test vector was constructed as described in Example 1 from a patient sample designated 97-268. […] Isolation of viral RNA and RT/PCR was used to generate a patient derived segment that comprised viral sequences coding for all of PR and amino acids 1-313 of RT. The patient derived segment was inserted into a indicator gene viral vector to generate a resistance test vector designated RTV-268.

[3] = test system: Tyr181Cys (Y181C) mutation of HIV RT; conditions: cited from earlier work

Row | Structure (SMILES) | change in susceptibility / resistance [2] | also measured
1 | O=C(O)C(=O)CC(=O)c1cccn1Cc1ccc(F)cc1 [L-731,988] |  | reduction in susceptibility compared to wild type control RTV [1]: 4.7 fold
2 | O=c1[nH]cnc2c1ncn2[C@H]1CC[C@@H](CO)O1 [ddI] | slight shifts in susceptibility | 
3 | Nc1ccn([C@@H]2CS[C@H](CO)O2)c(=O)n1 [3TC] | significant resistance | 
4 | Cc1cn([C@H]2C=C[C@@H](CO)O2)c(=O)[nH]c1=O [d4T] | slight shifts in susceptibility | 
5 | CCc1cc(NCc2nc3c(Cl)ccc(Cl)c3o2)c(O)nc1C [L-697,661] |  | change in susceptibility [3]: reduced susceptibility
6 | Cc1cn([C@H]2C[C@H](N=[N+]=[N-])[C@@H](CO)O2)c(=O)[nH]c1=O [AZT] | significant resistance | 
7 | Nc1ccn([C@H]2CC[C@@H](CO)O2)c(=O)n1 [ddC] | slight shifts in susceptibility | 
8 | CCc1cc(CCc2nc3ccccc3o2)c(=O)[nH]c1C [L-696,229] |  | change in susceptibility [3]: reduced susceptibility
